# What was measured:
# [1] = target: T1, Prostaglandin G/H synthase 2 (Homo sapiens, UniProt P35354)
# T1 sequence (P35354 whole entry): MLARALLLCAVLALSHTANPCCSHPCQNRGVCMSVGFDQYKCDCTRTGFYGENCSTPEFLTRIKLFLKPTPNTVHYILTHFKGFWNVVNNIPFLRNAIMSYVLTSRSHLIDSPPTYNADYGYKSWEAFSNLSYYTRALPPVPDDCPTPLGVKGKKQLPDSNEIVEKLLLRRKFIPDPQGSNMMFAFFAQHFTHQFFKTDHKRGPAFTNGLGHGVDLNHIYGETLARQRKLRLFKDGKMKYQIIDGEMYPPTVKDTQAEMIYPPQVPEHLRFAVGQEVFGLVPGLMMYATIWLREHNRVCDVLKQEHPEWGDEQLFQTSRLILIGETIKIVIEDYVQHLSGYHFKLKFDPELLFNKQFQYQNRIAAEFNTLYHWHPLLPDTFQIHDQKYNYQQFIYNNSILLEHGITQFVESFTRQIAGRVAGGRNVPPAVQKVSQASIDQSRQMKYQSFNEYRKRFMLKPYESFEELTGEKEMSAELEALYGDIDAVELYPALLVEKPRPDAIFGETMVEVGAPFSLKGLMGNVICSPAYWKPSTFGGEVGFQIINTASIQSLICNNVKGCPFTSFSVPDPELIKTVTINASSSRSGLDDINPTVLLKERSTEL
# [2] = target: Prostaglandin G/H synthase 1 (Homo sapiens, UniProt P23219)
# [3] = test system: Rattus norvegicus; test: Compound was evaluated for the percent inhibition of hyperalgesia at an effective dose of 20 mg/kg in rat; format: functional
# [4] = test system: Rattus norvegicus; test: Compound was evaluated for the antiinflammatory activity in vivo in the carrageenan rat paw edema (CPE); format: functional
# Prostaglandin G/H synthase 1, sequence (P23219 whole entry): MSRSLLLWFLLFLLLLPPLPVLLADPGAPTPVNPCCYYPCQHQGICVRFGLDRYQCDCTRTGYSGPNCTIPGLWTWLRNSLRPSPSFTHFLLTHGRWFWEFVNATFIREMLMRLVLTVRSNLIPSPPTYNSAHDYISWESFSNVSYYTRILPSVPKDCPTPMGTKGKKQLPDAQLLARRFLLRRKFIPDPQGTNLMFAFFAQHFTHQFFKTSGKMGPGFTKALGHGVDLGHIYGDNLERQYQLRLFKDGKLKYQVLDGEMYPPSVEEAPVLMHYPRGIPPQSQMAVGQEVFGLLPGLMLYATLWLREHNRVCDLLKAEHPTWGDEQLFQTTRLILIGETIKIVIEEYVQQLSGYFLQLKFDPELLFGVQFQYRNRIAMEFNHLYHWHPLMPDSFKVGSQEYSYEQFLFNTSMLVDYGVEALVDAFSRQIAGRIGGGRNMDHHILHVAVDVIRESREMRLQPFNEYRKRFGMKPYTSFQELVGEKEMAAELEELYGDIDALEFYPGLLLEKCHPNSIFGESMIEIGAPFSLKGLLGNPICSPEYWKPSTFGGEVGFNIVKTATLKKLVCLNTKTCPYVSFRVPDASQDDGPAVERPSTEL
SMILES,IC50 [1],IC50 [2],inhibition in vivo at 20 mg/kg [3],ED50 [4]
CS(=O)(=O)c1ccc(-c2sc(Cc3ccccc3)nc2-c2ccc(F)cc2)cc1,0.018 µM,> 100 µM,,
CS(=O)(=O)c1ccc(-c2sc(-c3ccccc3Cl)nc2-c2ccc(F)cc2F)cc1,0.021 µM,,,
CS(=O)(=O)c1ccc(-c2sc(-c3cccnc3)nc2-c2ccc(F)cc2)cc1,0.43 µM,> 1000 µM,,
CCOC(=O)c1nc(-c2ccc(F)cc2)c(-c2ccc(S(C)(=O)=O)cc2)s1,0.61 µM,> 100 µM,,
CS(=O)(=O)c1ccc(-c2sc(-c3ccccc3Cl)nc2-c2cccc(F)c2)cc1,0.016 µM,> 100 µM,,
CS(=O)(=O)c1ccc(-c2sc(-c3ccccc3Cl)nc2-c2cc(F)ccc2F)cc1,> 100 µM,> 100 µM,,
CCc1nc(-c2ccc(F)cc2)c(-c2ccc(S(C)(=O)=O)cc2)s1,0.023 µM,19 µM,,
CS(=O)(=O)c1ccc(-c2sc(-c3ccccc3Cl)nc2-c2cccs2)cc1,,> 100 µM,,
CS(=O)(=O)c1ccc(-c2sc(CCCc3ccccc3)nc2-c2ccc(F)cc2)cc1,0.52 µM,> 1000 µM,,
CS(=O)(=O)c1ccc(-c2sc(-c3ccccc3Cl)nc2-c2ccccc2)cc1,0.01 µM,> 100 µM,,
CS(=O)(=O)c1ccc(-c2sc(-c3ccccc3Cl)nc2-c2ccsc2)cc1,,> 100 µM,,
CS(=O)(=O)c1ccc(-c2sc(CC#N)nc2-c2ccc(F)cc2)cc1,0.35 µM,> 100 µM,,
CS(=O)(=O)c1ccc(-c2sc(CCc3ccccc3)nc2-c2ccc(F)cc2)cc1,0.032 µM,> 100 µM,,
CS(=O)(=O)c1ccc(-c2nc(C(F)(F)F)sc2-c2ccc(F)cc2)cc1,0.006 µM,1.07 µM,,
CS(=O)(=O)c1ccc(-c2sc(C(F)(F)F)nc2-c2ccc(F)cc2)cc1,0.023 µM,> 100 µM,,
CS(=O)(=O)c1ccc(-c2sc(-c3ccccc3Cl)nc2-c2ccccc2F)cc1,0.01 µM,> 100 µM,,

# Second part, led by results:
IC50 [1],IC50 [2],SMILES,inhibition in vivo at 20 mg/kg [3],ED50 [4]
0.007 µM,> 10 µM,CS(=O)(=O)c1ccc(-c2sc(CCCc3ccc(Br)cc3)nc2-c2ccc(F)cc2)cc1,,
> 30 µM,> 100 µM,CS(=O)(=O)c1ccc(-c2sc(-c3ccccc3)nc2-c2ccc(F)cc2)cc1,,
0.021 µM,> 100 µM,CS(=O)(=O)c1ccc(-c2sc(-c3cccs3)nc2-c2ccc(F)cc2)cc1,,
0.11 µM,> 10 µM,Cc1nc(-c2ccc(F)cc2)c(-c2ccc(S(C)(=O)=O)cc2)s1,,
1.6 µM,> 100 µM,CS(=O)(=O)c1ccc(-c2sc(-c3ccncc3)nc2-c2ccc(F)cc2)cc1,,
0.05 µM,> 100 µM,CS(=O)(=O)c1ccc(-c2sc(-c3ccccc3Cl)nc2-c2ccc(F)cc2)cc1,27%,20 mg/kg
> 100 µM,> 100 µM,CC(C)(C)c1ccc(-c2nc(-c3ccc(F)cc3)c(-c3ccc(S(C)(=O)=O)cc3)s2)cc1,,
0.12 µM,> 100 µM,Cc1nc(-c2ccc(S(C)(=O)=O)cc2)c(-c2ccc(F)cc2)s1,,
0.27 µM,> 10 µM,COc1ccc(-c2nc(-c3ccc(F)cc3)c(-c3ccc(S(C)(=O)=O)cc3)s2)cc1,,
0.11 µM,> 100 µM,CC(C)(C)c1nc(-c2ccc(F)cc2)c(-c2ccc(S(C)(=O)=O)cc2)s1,,
0.05 µM,> 100 µM,CS(=O)(=O)c1ccc(-c2sc(-c3ccc(Cl)cc3)nc2-c2ccc(F)cc2)cc1,,
0.54 µM,> 100 µM,CS(=O)(=O)c1ccc(-c2nc(-c3ccccc3)sc2-c2ccc(F)cc2)cc1,,

# — ChEMBL document CHEMBL1132704, “Design and synthesis of sulfonyl-substituted 4,5-diarylthiazoles as selective cyclooxygenase-2 inhibitors” (Bioorg Med Chem Lett, 1999)
